Test results published in patent publication US8959984B2, “Proteome-wide quantification of small molecule binding to cellular target proteins” (priority 2007, dated 2015).
Where two headings read alike, the source gives them in different places.

How the values were obtained:
EphB4 = EphB4 (Homo sapiens, UniProt P54760); test: binding to immobilized V16742 (IVA1/IVA2, HeLa lysate, MS)
RPL7A = RPL7A (Homo sapiens, UniProt P62424)
[1] = biological target: p38a (MAPK14, IPI00002857) (Homo sapiens, UniProt Q16539); test: gefitinib competition against AX14596 beads (HeLa lysate, SILAC MS); format: binding
CaMK2d (CAMK2D) = CaMK2d (CAMK2D) (Homo sapiens, UniProt Q13557)
XTP3TPA (IPI00012197) = biological target: T1, XTP3TPA (IPI00012197) (Homo sapiens, UniProt Q9H773); test: binding to VI16742 beads (HeLa lysate, SILAC MS)
T1 construct: endogenous in cells; host or cells: HeLa S3
T1 sequence (Q9H773 1-170): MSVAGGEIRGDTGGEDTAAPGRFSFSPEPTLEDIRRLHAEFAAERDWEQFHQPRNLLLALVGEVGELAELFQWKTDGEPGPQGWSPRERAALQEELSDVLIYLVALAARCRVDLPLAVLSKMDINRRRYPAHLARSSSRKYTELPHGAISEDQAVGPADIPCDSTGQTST
Method in brief: (§1)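 First, lysate proteins are exposed to beads bearing the pyrido[2,3-d]pyrimidine-based inhibitor. Next, specifically retained proteins are identified.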

[2] = biological target: T2, IKKb (IKBKB, IPI00024709) (Homo sapiens, UniProt O14920); test: binding to VI16742 beads (HeLa lysate, SILAC MS)
T2 construct: endogenous in cells; host or cells: HeLa S3
T2 sequence (O14920 1-756): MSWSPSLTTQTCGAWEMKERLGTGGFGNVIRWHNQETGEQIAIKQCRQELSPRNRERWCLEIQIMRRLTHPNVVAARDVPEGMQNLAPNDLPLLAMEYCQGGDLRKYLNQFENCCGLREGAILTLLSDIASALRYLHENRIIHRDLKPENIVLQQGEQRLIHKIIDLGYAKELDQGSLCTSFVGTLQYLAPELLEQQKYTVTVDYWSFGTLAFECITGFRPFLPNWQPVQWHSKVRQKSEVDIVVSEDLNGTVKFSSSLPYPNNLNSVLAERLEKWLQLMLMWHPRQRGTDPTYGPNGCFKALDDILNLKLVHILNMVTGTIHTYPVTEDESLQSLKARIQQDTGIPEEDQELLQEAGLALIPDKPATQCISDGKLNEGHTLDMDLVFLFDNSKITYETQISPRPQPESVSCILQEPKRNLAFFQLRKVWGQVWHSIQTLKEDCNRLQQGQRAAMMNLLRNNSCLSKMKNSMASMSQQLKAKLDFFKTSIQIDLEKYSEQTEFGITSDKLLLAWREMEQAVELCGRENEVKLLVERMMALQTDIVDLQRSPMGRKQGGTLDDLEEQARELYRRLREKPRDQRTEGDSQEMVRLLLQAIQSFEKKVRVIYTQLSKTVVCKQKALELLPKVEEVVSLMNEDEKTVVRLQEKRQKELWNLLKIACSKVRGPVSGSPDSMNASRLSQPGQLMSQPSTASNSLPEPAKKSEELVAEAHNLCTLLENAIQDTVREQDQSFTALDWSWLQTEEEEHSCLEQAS
Method in brief: as §1

MAP2K2 (IPI00003783) = biological target: T3, MAP2K2 (IPI00003783) (Homo sapiens, UniProt P36507); test: binding to VI16742 beads (HeLa lysate, SILAC MS)
T3 construct: endogenous in cells; host or cells: HeLa S3
Method in brief: as §1

CDK6 (IPI00023529) = biological target: T4, CDK6 (IPI00023529) (Homo sapiens, UniProt Q00534); test: binding to VI16742 beads (HeLa lysate, SILAC MS)
T4 construct: endogenous in cells; host or cells: HeLa S3
Method in brief: as §1

[3] = biological target: T5, PKACa (PRKACA, IPI00396630) (Homo sapiens, UniProt P17612); test: binding to VI16742 beads (HeLa lysate, SILAC MS)
T5 construct: endogenous in cells; host or cells: HeLa S3
Method in brief: as §1

p38a = biological target: T6, p38a (Homo sapiens, UniProt Q16539); test: binding to immobilized V16742 (IVA1/IVA2, HeLa lysate, MS); conditions: p38a (IPI00221141.2)
T6 construct: endogenous in cells; host or cells: HeLa S3

Erk1 = Erk1 (Homo sapiens, UniProt P27361); test: as above
TLK2 = biological target: T7, TLK2 (Homo sapiens, UniProt Q86UE8); test: as above
T7 construct: endogenous in cells; host or cells: HeLa S3

[4] = control beads vs first incubation
[5] = average of two experiments, read-out: Kd Avg

T3 sequence (P36507 whole entry): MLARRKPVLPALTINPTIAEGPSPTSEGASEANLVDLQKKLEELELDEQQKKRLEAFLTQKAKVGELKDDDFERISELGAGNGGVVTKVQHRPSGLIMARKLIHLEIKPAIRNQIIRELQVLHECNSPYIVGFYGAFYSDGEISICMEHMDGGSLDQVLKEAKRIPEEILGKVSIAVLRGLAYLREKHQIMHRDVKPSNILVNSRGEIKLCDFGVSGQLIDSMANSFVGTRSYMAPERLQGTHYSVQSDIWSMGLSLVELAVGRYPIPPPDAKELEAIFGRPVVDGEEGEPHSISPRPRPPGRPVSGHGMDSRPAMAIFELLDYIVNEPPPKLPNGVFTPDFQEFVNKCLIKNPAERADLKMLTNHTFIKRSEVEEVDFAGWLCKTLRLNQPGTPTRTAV
T7 sequence (Q86UE8 whole entry): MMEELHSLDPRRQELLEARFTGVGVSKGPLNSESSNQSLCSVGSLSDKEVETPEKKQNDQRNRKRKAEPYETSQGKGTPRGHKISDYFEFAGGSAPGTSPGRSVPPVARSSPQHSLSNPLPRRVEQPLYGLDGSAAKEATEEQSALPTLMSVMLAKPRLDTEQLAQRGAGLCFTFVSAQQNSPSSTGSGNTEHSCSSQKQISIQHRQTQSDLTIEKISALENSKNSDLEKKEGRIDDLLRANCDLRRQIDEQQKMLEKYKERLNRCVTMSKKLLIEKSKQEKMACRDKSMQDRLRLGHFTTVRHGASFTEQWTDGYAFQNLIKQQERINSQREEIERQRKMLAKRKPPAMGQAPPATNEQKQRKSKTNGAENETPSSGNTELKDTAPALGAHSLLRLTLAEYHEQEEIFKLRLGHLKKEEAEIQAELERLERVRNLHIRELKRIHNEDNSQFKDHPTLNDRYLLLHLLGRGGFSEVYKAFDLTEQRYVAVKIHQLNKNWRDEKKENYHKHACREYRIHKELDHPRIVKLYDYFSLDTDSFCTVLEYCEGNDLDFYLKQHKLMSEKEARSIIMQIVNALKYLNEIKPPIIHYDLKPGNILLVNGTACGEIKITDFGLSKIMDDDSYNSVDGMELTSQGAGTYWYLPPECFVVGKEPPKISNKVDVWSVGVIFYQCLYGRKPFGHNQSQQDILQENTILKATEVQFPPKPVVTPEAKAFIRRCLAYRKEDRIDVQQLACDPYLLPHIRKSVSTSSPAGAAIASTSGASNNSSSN
EphB4, sequence (P54760 16-987): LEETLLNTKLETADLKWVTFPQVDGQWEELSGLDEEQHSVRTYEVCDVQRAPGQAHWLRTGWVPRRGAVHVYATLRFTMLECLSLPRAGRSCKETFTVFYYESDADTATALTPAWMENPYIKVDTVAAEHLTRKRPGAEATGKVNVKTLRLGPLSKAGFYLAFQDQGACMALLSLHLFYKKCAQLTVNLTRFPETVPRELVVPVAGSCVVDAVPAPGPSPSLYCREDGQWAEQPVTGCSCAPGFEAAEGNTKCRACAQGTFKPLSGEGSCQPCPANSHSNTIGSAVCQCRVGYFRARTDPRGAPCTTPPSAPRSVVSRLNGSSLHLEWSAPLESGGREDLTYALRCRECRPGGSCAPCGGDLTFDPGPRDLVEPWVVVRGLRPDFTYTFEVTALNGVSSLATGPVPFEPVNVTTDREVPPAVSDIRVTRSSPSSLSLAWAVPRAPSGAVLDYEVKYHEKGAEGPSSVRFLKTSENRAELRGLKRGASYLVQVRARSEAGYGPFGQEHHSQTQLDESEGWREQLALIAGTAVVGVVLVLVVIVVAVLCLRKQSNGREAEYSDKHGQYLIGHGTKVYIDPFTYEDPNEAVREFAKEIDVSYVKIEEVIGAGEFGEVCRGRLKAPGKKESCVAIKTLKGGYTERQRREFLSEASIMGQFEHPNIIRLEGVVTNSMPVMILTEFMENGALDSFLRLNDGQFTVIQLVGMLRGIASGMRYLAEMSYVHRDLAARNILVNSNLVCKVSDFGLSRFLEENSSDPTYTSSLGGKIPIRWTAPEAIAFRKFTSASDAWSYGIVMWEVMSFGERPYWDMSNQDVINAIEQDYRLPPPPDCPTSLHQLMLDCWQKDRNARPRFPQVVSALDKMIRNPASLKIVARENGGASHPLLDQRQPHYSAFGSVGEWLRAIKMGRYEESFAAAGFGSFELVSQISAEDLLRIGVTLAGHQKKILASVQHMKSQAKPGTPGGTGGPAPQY
T4 sequence (Q00534 whole entry): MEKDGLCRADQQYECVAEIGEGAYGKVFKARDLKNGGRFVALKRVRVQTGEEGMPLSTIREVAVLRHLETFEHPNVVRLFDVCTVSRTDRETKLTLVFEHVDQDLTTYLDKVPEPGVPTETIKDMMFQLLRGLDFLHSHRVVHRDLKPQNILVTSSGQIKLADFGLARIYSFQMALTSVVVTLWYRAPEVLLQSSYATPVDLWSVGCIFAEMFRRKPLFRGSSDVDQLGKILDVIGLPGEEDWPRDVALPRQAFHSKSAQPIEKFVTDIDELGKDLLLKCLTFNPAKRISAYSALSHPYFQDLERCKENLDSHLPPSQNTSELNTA
Erk1, sequence (P27361 whole entry): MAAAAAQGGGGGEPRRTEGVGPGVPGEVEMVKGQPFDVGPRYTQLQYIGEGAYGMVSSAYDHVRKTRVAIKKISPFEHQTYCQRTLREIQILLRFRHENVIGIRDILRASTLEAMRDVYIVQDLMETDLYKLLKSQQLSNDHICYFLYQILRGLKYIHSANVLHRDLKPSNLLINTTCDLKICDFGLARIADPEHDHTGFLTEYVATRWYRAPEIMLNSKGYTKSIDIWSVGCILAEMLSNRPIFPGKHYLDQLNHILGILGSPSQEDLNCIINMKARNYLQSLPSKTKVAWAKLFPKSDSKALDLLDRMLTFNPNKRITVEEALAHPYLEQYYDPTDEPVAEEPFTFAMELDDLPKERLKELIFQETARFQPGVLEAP
CaMK2d (CAMK2D), sequence (Q13557 whole entry): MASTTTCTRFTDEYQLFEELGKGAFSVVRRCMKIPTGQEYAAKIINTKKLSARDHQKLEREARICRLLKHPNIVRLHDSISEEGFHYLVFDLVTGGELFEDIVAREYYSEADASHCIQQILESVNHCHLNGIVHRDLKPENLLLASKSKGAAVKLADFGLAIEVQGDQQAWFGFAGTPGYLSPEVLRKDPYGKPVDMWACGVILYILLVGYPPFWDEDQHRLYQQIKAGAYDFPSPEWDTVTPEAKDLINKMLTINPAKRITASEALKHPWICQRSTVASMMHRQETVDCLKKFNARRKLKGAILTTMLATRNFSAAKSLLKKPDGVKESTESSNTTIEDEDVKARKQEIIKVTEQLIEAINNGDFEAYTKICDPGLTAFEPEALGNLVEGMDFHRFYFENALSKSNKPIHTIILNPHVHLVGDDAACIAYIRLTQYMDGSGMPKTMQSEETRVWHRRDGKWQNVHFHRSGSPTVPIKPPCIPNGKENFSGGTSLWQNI
p38a (MAPK14, IPI00002857), sequence (Q16539 whole entry): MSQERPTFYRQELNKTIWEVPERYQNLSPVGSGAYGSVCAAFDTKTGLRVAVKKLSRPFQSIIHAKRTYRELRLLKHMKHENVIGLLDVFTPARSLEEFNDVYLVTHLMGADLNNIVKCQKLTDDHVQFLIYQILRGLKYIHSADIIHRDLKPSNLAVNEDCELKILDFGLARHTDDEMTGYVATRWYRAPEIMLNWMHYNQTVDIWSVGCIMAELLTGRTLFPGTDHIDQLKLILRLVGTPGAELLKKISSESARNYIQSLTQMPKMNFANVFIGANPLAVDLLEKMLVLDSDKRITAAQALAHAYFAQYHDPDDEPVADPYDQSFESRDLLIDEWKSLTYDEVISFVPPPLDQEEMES
T6 sequence (Q16539 whole entry): as above

SMILES: CC(C)n1c(=O)ccc2cnc(Nc3ccc(OCCN)cc3)nc21 [compound 16742]
- Percent bound at 1.87 μM 16742 conc (EphB4; EXPERIMENT 1): 3.95%
- Percent bound at 8.74 μM 16742 conc (EphB4; EXPERIMENT 1): 18.14%
- Percent bound at 52 μM 16742 conc (EphB4; EXPERIMENT 1): 61.05%
- Kd (EphB4; EXPERIMENT 1, read-out: Kd): 35.2 µM
- Percent bound at 1.87 μM 16742 conc (EphB4; EXPERIMENT 2): 2.71%
- Percent bound at 8.74 μM 16742 conc (EphB4; EXPERIMENT 2): 12.85%
- Percent bound at 52 μM 16742 conc (EphB4; EXPERIMENT 2): 50.80%
- Kd (EphB4; EXPERIMENT 2, read-out: Kd): 52.1 µM
- Kd (EphB4; read-out: Kd Avg): 43.6 µM

SMILES: COc1cc2ncnc(Nc3ccc(F)c(Cl)c3)c2cc1OCCCN1CCOCC1 [gefitinib]
- rAVERAGE (10 nM/0 nM Gef.) (RPL7A): 0.92
- rAVERAGE (100 nM/0 nM Gef.) (RPL7A): 0.88
- rAVERAGE (1000 nM/0 nM Gef.) (RPL7A): 0.59
- rAVERAGE (10000 nM/0 nM Gef.) (RPL7A): 0.79
- rAVERAGE (10 nM/0 nM Gef.) [1]: 0.88
- rAVERAGE (100 nM/0 nM Gef.) [1]: 1.04
- rAVERAGE (1000 nM/0 nM Gef.) [1]: 0.92
- rAVERAGE (10000 nM/0 nM Gef.) [1]: 0.64
- rAVERAGE (10 nM/0 nM Gef.) (CaMK2d (CAMK2D)): 0.89
- rAVERAGE (100 nM/0 nM Gef.) (CaMK2d (CAMK2D)): 1.11
- rAVERAGE (1000 nM/0 nM Gef.) (CaMK2d (CAMK2D)): 0.91
- rAVERAGE (10000 nM/0 nM Gef.) (CaMK2d (CAMK2D)): 0.93

SMILES: CC(C)n1c(=O)ccc2cnc(Nc3ccc(OCCN)cc3)nc21 [V16742]
- r (3 MG/1 MG LYSATE) (XTP3TPA (IPI00012197); 3 mg vs 1 mg lysate): 3.39
- r (5 h/2.5 h INC. TIME) (XTP3TPA (IPI00012197); 5 h vs 2.5 h incubation time): 1.04
- rAVERAGE (CTRL/1 INC) (XTP3TPA (IPI00012197); [4]): 0.08
- Ki (XTP3TPA (IPI00012197); immobilized VI16742): 159 µM
- rAVERAGE (2 INC/1 INC) (XTP3TPA (IPI00012197); second vs first incubation): 0.75
- rAVERAGE (CTRL/1 INC) [2, 4]: 0.06
- Ki ([2]; immobilized VI16742): 201 µM
- rAVERAGE (2 INC/1 INC) ([2]; second vs first incubation): 0.79
- r (5 h/2.5 h INC. TIME) (MAP2K2 (IPI00003783); 5 h vs 2.5 h incubation time): 2.03
- rAVERAGE (CTRL/1 INC) (MAP2K2 (IPI00003783); [4]): 0.03
- Ki (MAP2K2 (IPI00003783); immobilized VI16742): 177 µM
- rAVERAGE (2 INC/1 INC) (MAP2K2 (IPI00003783); second vs first incubation): 0.77
- r (5 h/2.5 h INC. TIME) (CDK6 (IPI00023529); 5 h vs 2.5 h incubation time): 0.75
- rAVERAGE (CTRL/1 INC) (CDK6 (IPI00023529); [4]): 0.10
- Ki (CDK6 (IPI00023529); immobilized VI16742): 119 µM
- rAVERAGE (2 INC/1 INC) (CDK6 (IPI00023529); second vs first incubation): 0.70
- r (3 MG/1 MG LYSATE) ([3]; 3 mg vs 1 mg lysate): 2.18
- r (5 h/2.5 h INC. TIME) ([3]; 5 h vs 2.5 h incubation time): 1.76
- rAVERAGE (CTRL/1 INC) [3, 4]: 0.04
- Ki ([3]; immobilized VI16742): 305 µM
- rAVERAGE (2 INC/1 INC) ([3]; second vs first incubation): 0.85
- Percent bound at various 16742 conc (p38a; Experiment 1, 1.87 μM 16742): 4.98%
- Percent bound at various 16742 conc (p38a; Experiment 1, 8.74 μM 16742): 6.72%
- Percent bound at various 16742 conc (p38a; Experiment 1, 52 μM 16742): 49.78%
- Kd (p38a; Experiment 1, read-out: Kd): 58.3 µM
- Percent bound at various 16742 conc (p38a; Experiment 2, 1.87 μM 16742): 3.02%
- Percent bound at various 16742 conc (p38a; Experiment 2, 8.74 μM 16742): 1.43%
- Percent bound at various 16742 conc (p38a; Experiment 2, 52 μM 16742): 24.52%
- Kd (p38a; Experiment 2, read-out: Kd): 167 µM
- Kd (p38a; [5]): 113 µM
- Kd (Erk1): 57.8 µM
- Percent bound at various 16742 conc (Erk1; Erk1, Experiment 1, 1.87 μM 16742): 1.06%
- Percent bound at various 16742 conc (Erk1; Erk1, Experiment 1, 8.74 μM 16742): 2.41%
- Percent bound at various 16742 conc (Erk1; Erk1, Experiment 1, 52 μM 16742): 52.52%
- Percent bound at various 16742 conc (Erk1; Erk1, Experiment 2, 1.87 μM 16742): 0.91%
- Percent bound at various 16742 conc (Erk1; Erk1, Experiment 2, 8.74 μM 16742): 2.38%
- Percent bound at various 16742 conc (Erk1; Erk1, Experiment 2, 52 μM 16742): 45.83%
- Kd (Erk1; Kd Avg, Erk1, average of two experiments): 64.4 µM
- Kd (Erk1; Kd, Erk1, Experiment 2): 71.1 µM
- Kd (Erk1; Kd, Erk1, immobilized V16742): 64.4 µM
- Percent bound at various 16742 conc (TLK2; Experiment 1, 1.87 μM 16742): 2.49%
- Percent bound at various 16742 conc (TLK2; Experiment 1, 8.74 μM 16742): 3.89%
- Percent bound at various 16742 conc (TLK2; Experiment 1, 52 μM 16742): 58.72%
- Kd (TLK2; Experiment 1, read-out: Kd): 47.3 µM
- Percent bound at various 16742 conc (TLK2; Experiment 2, 1.87 μM 16742): 1.24%
- Percent bound at various 16742 conc (TLK2; Experiment 2, 8.74 μM 16742): 3.73%
- Percent bound at various 16742 conc (TLK2; Experiment 2, 52 μM 16742): 41.78%
- Kd (TLK2; Experiment 2, read-out: Kd): 80 µM
- Kd (TLK2; [5]): 63.7 µM
